Data published in ChEMBL document CHEMBL1121801, “Salicylamide derivatives related to medroxalol with alpha- and beta-adrenergic antagonist and antihypertension activity” (J Med Chem, 1981).

Columns and labels:
[1] = target: Beta-2 adrenergic receptor (Canis lupus familiaris) (UniProt P54833);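 note: Beta-2 blockade of isoproterenol-induced vasodepression in anesthetized dogs, given intravenously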
Description: In vivo sympatholytic activity (isoproterenol-induced vasodepression) at beta 2-adrenergic receptor in anesthetized dog, iv

Cavia porcellus = species: Cavia porcellus; test: spasmolytic activity in isolated guinea pig ileum preparation;- log KB; (Bacl2); assay type: functional, organism-based; settings: read-out: pA2 (converted)
[2] = target: Adrenergic receptor alpha (Homo sapiens) (UniProt P35348+P08913+P18825+P25100+P35368+P18089); settings: Canis lupus familiaris
Description: In vivo sympatholytic activity (phenylephrine-induced vasopressor response) at alpha-adrenergic receptor in anesthetized dog, iv

[3] = target: T1, Adrenergic receptor alpha-1 (Homo sapiens, UniProt P35348+P25100+P35368); test: In vitro blocking activity against alpha adrenergic receptor, isolated from rabbit aortic strip; assay type: protein assay, Oryctolagus cuniculus
T1 sequence (P35348 whole entry): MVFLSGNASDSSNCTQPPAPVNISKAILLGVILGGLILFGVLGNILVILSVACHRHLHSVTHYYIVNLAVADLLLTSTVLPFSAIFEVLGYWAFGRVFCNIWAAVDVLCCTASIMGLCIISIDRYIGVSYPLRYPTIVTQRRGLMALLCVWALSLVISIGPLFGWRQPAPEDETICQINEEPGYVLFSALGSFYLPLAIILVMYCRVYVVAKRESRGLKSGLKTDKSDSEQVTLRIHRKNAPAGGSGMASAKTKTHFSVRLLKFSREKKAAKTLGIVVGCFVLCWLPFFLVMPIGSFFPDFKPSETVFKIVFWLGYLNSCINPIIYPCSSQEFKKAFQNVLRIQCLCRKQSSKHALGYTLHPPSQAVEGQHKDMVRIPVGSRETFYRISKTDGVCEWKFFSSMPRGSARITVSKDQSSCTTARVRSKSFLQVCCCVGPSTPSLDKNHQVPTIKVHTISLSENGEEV
T1 sequence (P25100 whole entry): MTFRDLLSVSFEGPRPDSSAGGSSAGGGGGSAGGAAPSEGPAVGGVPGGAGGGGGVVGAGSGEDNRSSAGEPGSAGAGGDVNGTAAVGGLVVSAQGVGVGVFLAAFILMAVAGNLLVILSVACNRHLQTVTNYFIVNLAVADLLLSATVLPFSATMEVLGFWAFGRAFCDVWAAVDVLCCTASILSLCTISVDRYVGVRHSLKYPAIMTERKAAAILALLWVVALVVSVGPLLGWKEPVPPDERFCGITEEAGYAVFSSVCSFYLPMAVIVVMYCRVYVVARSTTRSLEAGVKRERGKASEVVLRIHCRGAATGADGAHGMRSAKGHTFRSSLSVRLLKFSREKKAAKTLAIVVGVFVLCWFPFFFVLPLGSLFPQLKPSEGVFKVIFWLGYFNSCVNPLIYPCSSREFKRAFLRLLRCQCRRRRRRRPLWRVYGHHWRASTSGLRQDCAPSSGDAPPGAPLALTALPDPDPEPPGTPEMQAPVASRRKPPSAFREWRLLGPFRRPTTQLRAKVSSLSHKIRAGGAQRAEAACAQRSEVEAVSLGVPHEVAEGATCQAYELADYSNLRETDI
T1 sequence (P35368 whole entry): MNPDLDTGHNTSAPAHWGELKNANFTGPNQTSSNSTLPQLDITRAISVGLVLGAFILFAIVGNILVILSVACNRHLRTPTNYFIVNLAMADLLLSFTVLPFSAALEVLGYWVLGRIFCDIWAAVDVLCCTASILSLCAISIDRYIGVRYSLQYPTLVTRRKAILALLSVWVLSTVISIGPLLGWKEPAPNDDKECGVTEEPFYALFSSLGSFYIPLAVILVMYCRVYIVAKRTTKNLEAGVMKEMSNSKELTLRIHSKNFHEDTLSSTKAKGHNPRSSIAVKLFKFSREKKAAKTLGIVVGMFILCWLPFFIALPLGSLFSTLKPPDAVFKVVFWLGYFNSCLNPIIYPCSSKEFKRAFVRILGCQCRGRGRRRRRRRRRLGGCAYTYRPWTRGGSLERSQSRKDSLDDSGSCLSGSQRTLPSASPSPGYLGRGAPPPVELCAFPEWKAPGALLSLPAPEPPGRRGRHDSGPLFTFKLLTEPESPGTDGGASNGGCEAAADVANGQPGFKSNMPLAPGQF

Oryctolagus cuniculus = species: Oryctolagus cuniculus; test: (§1) Ratio of pA2 for beta-adrenergic receptor to that of alpha-adrenergic receptor
Rattus norvegicus [4] = test: Antihypertensive activity in spontaneously hypertensive rats(SHR) at 50 mg/kg peroral dose after 1 h, expressed as decrease in systolic blood pressure; assay type: functional, Artery; settings: route oral
Adrenergic receptor beta [5] = target: T2, Adrenergic receptor beta (Homo sapiens, UniProt P08588+P07550+P13945); test: In vitro blocking activity against beta adrenergic receptor, isolated from guinea pig atria; assay type: protein assay
[6] = target: Beta-1 adrenergic receptor (Homo sapiens) (UniProt P08588); settings: Canis lupus familiaris;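 note: anesthetized dogs dosed intravenously, sympatholytic action measured as inhibition of the chronotropic response to isoproterenol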
Chain of Beta-1 adrenergic receptor (Homo sapiens) (P08588 whole entry, looked up): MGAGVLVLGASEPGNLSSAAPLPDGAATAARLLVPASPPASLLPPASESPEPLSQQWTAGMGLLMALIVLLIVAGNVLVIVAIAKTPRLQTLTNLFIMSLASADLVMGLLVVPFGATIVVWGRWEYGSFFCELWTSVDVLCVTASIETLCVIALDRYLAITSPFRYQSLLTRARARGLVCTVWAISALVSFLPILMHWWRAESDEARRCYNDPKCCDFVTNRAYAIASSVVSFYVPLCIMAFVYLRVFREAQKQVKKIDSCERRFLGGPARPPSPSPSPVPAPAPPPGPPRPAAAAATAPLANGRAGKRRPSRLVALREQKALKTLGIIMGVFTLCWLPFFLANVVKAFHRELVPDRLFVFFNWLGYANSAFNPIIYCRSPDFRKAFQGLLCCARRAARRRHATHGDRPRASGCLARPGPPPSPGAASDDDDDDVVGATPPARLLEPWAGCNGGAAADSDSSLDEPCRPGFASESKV
Description: In vivo sympatholytic activity (isoproterenol-induced chronotropy) at beta 1-adrenergic receptor in anesthetized dog, iv

Rattus norvegicus [7] = test: Antihypertensive activity in spontaneously hypertensive rats(SHR) at 50 mg/kg peroral dose after 4 h, expressed as decrease in systolic blood pressure; assay type: functional, Artery; settings: route oral
Adrenergic receptor beta [8] = target: T2, Adrenergic receptor beta; test: as §1; assay type: protein assay; settings: Cavia porcellus
[9] = target: T1, Adrenergic receptor alpha-1; test: Compound was tested in vitro for Alpha adrenergic receptor blocking activity in the isolated rabbit aortic strip preparation; - log KB; parameters: species or system Oryctolagus cuniculus; settings: target entry is the homologue from another species
Rattus norvegicus [10] = test: Compound was tested for antihypertensive activity in spontaneously hypertensive rats(SHR)at 50 mg/kg (po) dose after 1 h; assay type: functional
Rattus norvegicus [11] = test: Compound was tested for antihypertensive activity n spontaneously hypertensive rats(SHR),at 50 mg/kg (po) dose after 4 h; assay type: functional

Chain of Beta-2 adrenergic receptor (Canis lupus familiaris) (P54833 whole entry, looked up): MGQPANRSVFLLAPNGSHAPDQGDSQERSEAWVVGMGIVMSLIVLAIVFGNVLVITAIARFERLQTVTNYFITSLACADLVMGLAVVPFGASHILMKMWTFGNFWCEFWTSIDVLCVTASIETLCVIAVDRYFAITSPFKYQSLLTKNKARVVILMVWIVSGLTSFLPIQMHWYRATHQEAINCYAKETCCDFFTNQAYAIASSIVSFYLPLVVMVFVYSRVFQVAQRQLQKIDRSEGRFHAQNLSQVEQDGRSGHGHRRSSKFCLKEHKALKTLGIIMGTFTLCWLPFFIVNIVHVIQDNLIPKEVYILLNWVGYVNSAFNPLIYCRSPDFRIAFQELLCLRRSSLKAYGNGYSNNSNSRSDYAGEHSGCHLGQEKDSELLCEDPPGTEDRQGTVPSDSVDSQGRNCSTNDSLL

DR10 [1] | DR10 [2] | pA2 [3] | Ratio (Oryctolagus cuniculus) | pA2 (Adrenergic receptor beta [5]) | DR10 [6] | Ratio (Adrenergic receptor beta [8]) | pA2 [9] | SMILES | Kb (Cavia porcellus) | BP decrease (Rattus norvegicus [4]) | BP decrease (Rattus norvegicus [7]) | BP decrease (Rattus norvegicus [10]) | BP decrease (Rattus norvegicus [11])
1.64 mg/kg | 9.68 mg/kg | < 5.14 | > 2090 | 8.46 | 0.23 mg/kg |  |  | COc1ccc(C(O)CNC(C)CCc2ccc3c(c2)OCO3)cc1C(N)=O.Cl (configuration not stated) | 43.7 µM | 76 mmHg | 78 mmHg |  | 
14.8 mg/kg | 4.84 mg/kg | 5.85 |  | 5.88 | 22.5 mg/kg | 1.1 |  | CC(C)NC(=O)c1cc(C(O)CNC(C)CCc2ccc3c(c2)OCO3)ccc1O.Cl (configuration not stated) | 0.417 µM | 48 mmHg | 10 mmHg |  | 
5.46 mg/kg | 5.82 mg/kg | 5.73 | 78 | 7.62 | 2.19 mg/kg |  |  | COC(=O)c1cc(C(O)CNC(C)CCc2ccc3c(c2)OCO3)ccc1O.Cl (configuration not stated) | 0.126 µM | 56 mmHg | 53 mmHg |  | 
1.17 mg/kg | 3.86 mg/kg |  | 55 | 7.82 | 0.84 mg/kg |  | 6.08 | CC(CCc1ccc2c(c1)OCO2)NCC(O)c1ccc(O)c(C(N)=O)c1.Cl (configuration not stated) [MEDROXALOL HYDROCHLORIDE] | 2.34 µM | 88 mmHg | 90 mmHg |  | 
3.61 mg/kg | 5.44 mg/kg | 5.9 | 6.2 | 6.69 | 8.63 mg/kg |  |  | CNC(=O)c1cc(C(O)CNC(C)CCc2ccc3c(c2)OCO3)ccc1O.Cl (configuration not stated) | 0.38 µM | 84 mmHg | 91 mmHg |  | 
 |  | 6.13 | 0.5 | 5.84 |  |  |  | COc1ccc(N2CCN(CC(O)c3ccc(O)c(C(N)=O)c3)CC2)cc1.Cl.Cl (configuration not stated) | > 52.5 µM | 10 mmHg | 7 mmHg |  | 
 |  | 5.2 | 0.8 | 5.1 |  |  |  | CC(CCc1ccc2c(c1)OCO2)NCC(O)c1ccc(O)c(C(=O)O)c1.Cl (configuration not stated) | > 100 µM | 6 mmHg | 5 mmHg |  | 
 |  | 7.21 | 0.1 | 6.33 |  |  |  | Cc1ccccc1N1CCN(CC(O)c2ccc(O)c(C(=O)NCC(C)(C)C)c2)CC1.Cl (configuration not stated) | 0.224 µM | 41 mmHg | 32 mmHg |  | 
0.76 mg/kg |  | 5.31 | 69 | 7.15 | 2.1 mg/kg |  |  | CC(C)(CCc1ccc2c(c1)OCO2)NCC(O)c1ccc(O)c(C(N)=O)c1.Cl (configuration not stated) | 0.676 µM | 43 mmHg | 61 mmHg |  | 
 |  | < 5 |  | 4.53 |  |  |  | CCCCCCCCCCCCNC(=O)c1cc(C(O)CNC(C)CCc2ccc3c(c2)OCO3)ccc1O.Cl (configuration not stated) | < 63.1 µM |  |  | 16 mmHg | 18 mmHg
 |  |  |  |  |  |  |  | Cc1ccc(N(CC2=NCCN2)c2cccc(O)c2)cc1.Cl [PHENTOLAMINE HYDROCHLORIDE] |  |  |  | 62 mmHg | 60 mmHg
 |  | 6.21 | 0.5 | 5.92 |  |  |  | COC(=O)c1cc(C(O)CNCC2COc3ccccc3O2)ccc1O.Cl (configuration not stated) | 4.07 µM | 46 mmHg | 31 mmHg |  | 
> 10 mg/kg | 6.6 mg/kg | 6.05 | 0.8 | 5.88 | > 10 mg/kg |  |  | CC(CCc1ccc2c(c1)OCO2)NCC(O)c1ccc(O)c(C(=O)NCC(C)(C)C)c1.Cl (configuration not stated) | 0.126 µM | 55 mmHg | 24 mmHg |  | 
 |  | 7.56 | 0.04 | 6.14 |  |  |  | Cc1ccccc1N1CCN(CC(O)c2ccc(O)c(C3N=NN=N3)c2)CC1 (configuration not stated) | > 100 µM | 48 mmHg | 47 mmHg |  | 
 |  | 5.56 | 372 | 8.1 |  |  |  | COC(=O)c1cc(C(O)CNC(C)CCc2ccc3c(c2)OCO3)ccc1OC.Cl (configuration not stated) | 2.75 µM | 44 mmHg | 22 mmHg |  | 
16.8 mg/kg | 3.22 mg/kg | 5.86 | 3.2 | 6.36 | 11.8 mg/kg |  |  | CCNC(=O)c1cc(C(O)CNC(C)CCc2ccc3c(c2)OCO3)ccc1O.Cl (configuration not stated) | 1.74 µM | 95 mmHg | 108 mmHg |  | 
 |  | 7.42 | 0.1 | 6.44 |  |  |  | COc1ccccc1N1CCN(CC(O)c2ccc(O)c(C(N)=O)c2)CC1.Cl (configuration not stated) | 13.5 µM | 45 mmHg | 35 mmHg |  | 
> 10 mg/kg | 1.09 mg/kg | 7.57 | 0.1 | 6.7 | 15.3 mg/kg |  |  | Cc1ccccc1N1CCN(CC(O)c2ccc(O)c(C(N)=O)c2)CC1.Cl.Cl (configuration not stated) | 1.86 µM | 48 mmHg | 37 mmHg |  | 
 |  | 6.27 | 0.1 | 5.27 |  |  |  | CCOc1ccc(C(O)CN2CCN(c3ccccc3)CC2)cc1C(N)=O.Cl (configuration not stated) | 21.4 µM | 22 mmHg | 19 mmHg |  | 
 |  | 6.2 | 0.4 | 5.84 |  |  |  | NC(=O)c1cc(C(O)CNCC2COc3ccccc3O2)ccc1O (configuration not stated) | 26.9 µM | 24 mmHg | 18 mmHg |  | 
 |  | 5.46 | 56 | 7.21 |  |  |  | CC(CCc1ccc2c(c1)OCO2)NCC(O)c1ccc(O)c(C(=O)N(C)C)c1.Cl (configuration not stated) | 8.71 µM | 24 mmHg | 22 mmHg |  | 

SMILES | DR10 [1] | DR10 [2] | pA2 [3] | Ratio (Oryctolagus cuniculus) | pA2 (Adrenergic receptor beta [5]) | DR10 [6] | Ratio (Adrenergic receptor beta [8]) | pA2 [9] | Kb (Cavia porcellus) | BP decrease (Rattus norvegicus [4]) | BP decrease (Rattus norvegicus [7]) | BP decrease (Rattus norvegicus [10]) | BP decrease (Rattus norvegicus [11])
CC(Cc1ccc2c(c1)OCO2)NCC(O)c1ccc(O)c(C(N)=O)c1 (configuration not stated) | 7.13 mg/kg | 16 mg/kg | 6.04 | 0.9 | 5.97 | 6.75 mg/kg |  |  | 4.57 µM | 79 mmHg | 73 mmHg |  | 
Cl.NC(=O)c1cc(C(O)CN2CCC(n3c(O)nc4ccccc43)CC2)ccc1O (configuration not stated) |  |  | 6.7 | 0.06 | 5.45 |  |  |  | > 61.7 µM | 6 mmHg | 15 mmHg |  | 
